Series [1] in a line: C and EC metabolite levels in rat brain tissue after 10 days repeated dosing. The series is classed as in vivo. The conditions noted are these: rats, following repeated dosing with GP or with Mo.
A further series has as its system CaMKII. In words: Western blot of phospho- and total CaMKII in hippocampal slices. Format: cell-based. The conditions noted are these: 300 nM, 5 hours, hippocampal slices from old Tg2576 mice.
The subject of series [2] is brain slices from wild type mice. Description: Electrophysiological recordings in brain slices from age-matched wild type mice. The series is classed as cell-based. The note with it: 300 nM.
For series [3], the system named is hippocampal slices from Tg2576 mice. Description: Electrophysiological recordings. Format: cell-based. The note with it: 300 nM, 4–5 h, hippocampal slices from old Tg2576 mice, versus vehicle.
The next series has as its system CREB (Ser133). Description: Phospho-CREB immunoassay in hippocampal slices. Format: cell-based. The note with it: 300 nM, 5 hours, hippocampal slices from old Tg2576 mice, versus vehicle.
The test system of the next series is MEK1 (Ser222). In words: Multiplex phospho-MEK immunoassay in hippocampal slices. The series is classed as cell-based. The note with it: 300 nM, 5 hours, hippocampal slices from old Tg2576 mice.
The test system of series [4] is Erk/MAP kinase 1/2 (Thr185/Tyr187). In words: Multiplex phospho-Erk1/2 immunoassay in hippocampal slices. The series is classed as cell-based. The note with it: 300 nM, 5 hours, hippocampal slices from old Tg2576 mice.
For a further series, the system named is PKA. In words: PKA activity assay and PKA IIa protein content in hippocampal slices. The series is classed as cell-based. The conditions noted are these: 300 nM, 5 hours, hippocampal slices from old Tg2576 mice.

SMILES strings stand for the structures.

For `Oc1cc(O)c2c(c1)O[C@H](c1ccc(O)c(O)c1)[C@H](O)C2` [EC, (−)-epicatechin], the “free C and EC contents in the brain” value in series [1] is “trace contents (below levels for quantification)”.
Still for that read-out and setting: as for `Oc1cc(O)c2c(c1)OC(c1ccc(O)c(O)c1)C(O)C2` (single isomer, unassigned; (+)) [C, (+)-catechin], the entry is “trace contents (below levels for quantification)”.
In the case of `COc1cc([C@H]2Oc3cc(O)cc(O[C@@H]4O[C@H](C(=O)O)[C@@H](O)[C@H](O)[C@H]4O)c3C[C@H]2O)ccc1O` [3’-O-Me-EC-Gluc, 3’-O-methyl-epicatechin-5-O-β-glucuronide], in the series with CaMKII, the “level of [Thr286]-phosphorylated, active CaMKII” value was “significantly increased” and the “level of total CaMKII” value was “without influencing”. In addition, in series [2], the LTP entry is reported as “did not have any effect” and the basal synaptic transmission entry was “did not have any effect”. In series [3], the “basal synaptic transmission in the CA1 region” value is given as “significantly increased”. Also, the “levels of [Ser133]-phosphorylated, active CREB” value in the series on CREB (Ser133) is “significantly increased”. Besides, in the series on MEK1 (Ser222), the “phosphorylation status of MEK” value was “did not modulate”. Besides, in series [4], the “phosphorylation status of Erk1/2 (Thr185/Tyr187)” value is given as “did not modulate”. Also, in the series with PKA, the “PKA (PKA activity assay and PKA IIa protein content)” value is listed as “nor did it affect”.

Source of the values: publication PMC3348654 (The Journal of Neuroscience, 2012).
